In patent EP4775580A1, “COMPOUND, PHARMACEUTICAL COMPOSITION COMPRISING SAME, AND USE THEREOF” (Euregen Biopharma Co., Ltd., priority 2023, dated 2025) one finds IC50 data, which are given here for two compounds.

Read-outs that look alike come from different tables or passages of the source.

For one experiment, the target named is T1, hERG potassium channel (Homo sapiens, UniProt Q12809).
T1 construct: expressed in transfected cells; host or cells: HEK293 (HEK-293-hERG)
Nature of the experiment: Inhibition of hERG current, manual whole-cell patch-clamp in HEK293 cells stably transfected with hERG. It is filed as cell-based. An excerpt:
• 1. Objective: To evaluate the inhibitory effect of test compounds on hERG current in HEK293 cells stably transfected with the hERG potassium channel using manual patch-clamp technique. • 2. Experimental Materials: The test compound was Compound 3 prepared according to the examples of the present invention; the positive control compound SNDX-5613 was purchased from Chengdu Zhihui Zhongxin Biomedical Co., Ltd.; HEK293 cells were obtained from Procell (Cat. #CL-0001). […]
Following establishment of the whole-cell recording configuration, the holding potential was maintained at -80 mV. […] Once the recorded hERG current stabilized, compounds were administered via continuous extracellular perfusion from low to high concentrations (0.3, 1, 3, 10, and 30 µmol/L). […]
Data Acquisition and Analysis: Experimental data were acquired using Clampex software and analyzed using Clampfit software. First, the current following each compound concentration was normalized to the control current ((Peak tail current (compound))/(Peak tail current (blank))) × 100 [formula] , then the inhibition rate for each compound concentration was calculated (1−(Peak tail current (compound))/(Peak tail current (blank))) × 100 [formula] . […]

The next experiment deals with HL-60 cells. Nature of the experiment: Antiproliferative activity, CellTiter-Glo, 7 days (Test Example 2), HL-60. Particulars: Homo sapiens, 168 h, HL-60 cells (no Menin-MLL fusion), 7 days incubation. It counts as cell-based. An excerpt:
[0134] 1. Experimental Principle: MV-4-11, Molm-13, and OCI-AML-3 cells are human hematologic tumor cell lines harboring the Menin-MLL fusion. HL-60 is a wild-type human hematologic tumor cell line without Menin-MLL fusion. […] 2. Experimental Materials: MV-4-11, Molm-13, OCI-AML-3, and HL-60 cells were all purchased from Cobioer; CellTiter-Glo® was purchased from Promega (Cat. #G7571); RPMI-1640 was purchased from Viva Cell (Cat. #C3010-0500); IMDM was purchased from Viva Cell (Cat. #C3040-0500); fetal bovine serum (FBS) was purchased from Biosera (Cat. #FB-1058/500); penicillin-streptomycin was purchased from BasalMedia (Cat. #S110JV); 0.25% Trypsin-EDTA was purchased from BasalMedia (Cat. #S310KJ); dimethyl sulfoxide (DMSO) was purchased from Sinopharm (Cat. #30072418); 96-well plates were purchased from Corning (Cat. #3610); incubator was obtained from PHCbi (Model: MCO-18AC); inverted microscope was obtained from Mingmei (Cat. #MI52-0); automated cell counter was obtained from BodBoge (Model: JSY-SC-031N); microplate reader was obtained from PerkinElmer (Model: Envision); data processing software: GraphPad Prism 8.0. 3. Experimental Methods: Four cell lines in logarithmic growth phase were resuspended in their respective growth media (MV-4-11: IMDM + 20% FBS; Molm-13: RPMI-1640 + 20% FBS; OCI-AML-3: RPMI-1640 + 20% FBS; HL-60: RPMI-1640 + 10% FBS) and diluted to target densities (12,500, 6,250, 12,500, and 12,500/mL, respectively). The cell suspensions were seeded into 96-well plates at 80 µL per well and incubated overnight at 37°C in a 5% CO2 incubator. Culture medium served as the background control. Test compounds were dissolved in DMSO to prepare 10 mmol/L stock solutions. The stock solutions were first diluted to 2 mmol/L with DMSO, followed by 4-fold serial dilutions to generate 10 concentrations. From each concentration, 2 µL was diluted with 78 µL growth medium. […] After incubation at room temperature for 10 minutes, luminescence values were read using the EnVision microplate reader, and IC50 values were calculated using GraphPad Prism 8.0 software. […]
Background: ATP-based viability assays read luminescence as a measure of living cells.

T1 sequence (Q12809 whole entry): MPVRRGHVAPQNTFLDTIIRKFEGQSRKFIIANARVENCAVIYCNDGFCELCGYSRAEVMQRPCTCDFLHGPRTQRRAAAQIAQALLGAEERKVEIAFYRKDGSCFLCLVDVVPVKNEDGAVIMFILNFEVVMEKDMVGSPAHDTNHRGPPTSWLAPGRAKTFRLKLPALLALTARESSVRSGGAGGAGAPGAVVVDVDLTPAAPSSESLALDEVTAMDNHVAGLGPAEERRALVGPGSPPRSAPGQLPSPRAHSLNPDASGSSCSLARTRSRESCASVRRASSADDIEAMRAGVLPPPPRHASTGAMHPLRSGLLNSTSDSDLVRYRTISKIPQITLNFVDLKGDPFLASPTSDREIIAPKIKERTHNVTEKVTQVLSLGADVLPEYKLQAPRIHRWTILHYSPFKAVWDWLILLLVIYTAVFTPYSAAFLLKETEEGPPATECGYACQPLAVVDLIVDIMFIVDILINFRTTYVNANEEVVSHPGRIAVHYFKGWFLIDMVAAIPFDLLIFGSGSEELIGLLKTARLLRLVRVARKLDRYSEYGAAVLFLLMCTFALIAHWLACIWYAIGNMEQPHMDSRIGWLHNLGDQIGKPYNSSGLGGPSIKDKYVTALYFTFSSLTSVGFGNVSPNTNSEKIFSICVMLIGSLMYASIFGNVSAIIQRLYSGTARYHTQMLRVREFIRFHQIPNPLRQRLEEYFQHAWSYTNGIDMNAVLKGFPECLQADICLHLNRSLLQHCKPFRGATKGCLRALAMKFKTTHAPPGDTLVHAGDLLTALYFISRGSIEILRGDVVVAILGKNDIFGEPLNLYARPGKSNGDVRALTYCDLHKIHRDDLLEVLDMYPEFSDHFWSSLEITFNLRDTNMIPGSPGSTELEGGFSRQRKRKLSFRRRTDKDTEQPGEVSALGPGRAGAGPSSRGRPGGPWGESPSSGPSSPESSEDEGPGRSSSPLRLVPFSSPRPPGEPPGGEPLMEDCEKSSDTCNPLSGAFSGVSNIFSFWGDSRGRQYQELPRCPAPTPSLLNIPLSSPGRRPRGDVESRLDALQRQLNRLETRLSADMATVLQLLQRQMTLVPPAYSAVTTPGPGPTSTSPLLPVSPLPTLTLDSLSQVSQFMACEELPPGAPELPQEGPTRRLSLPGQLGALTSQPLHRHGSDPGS

As usually defined, the IC50 is the concentration needed to halve the response being measured. As for `CCN(C(=O)c1cc(F)ccc1N1CCN([C@@H]2CCN([C@H](CCCN(C)CCOC)C(C)C)C2)c2ncncc21)C(C)C` [Example 3], the IC50 against hERG potassium channel was greater than 30 µM; with HL-60 cells, greater than 10 µM.

Turning to `CCN(C(=O)c1cc(F)ccc1Oc1cncnc1N1CC2(CCN(C[C@H]3CC[C@H](NS(=O)(=O)CC)CC3)CC2)C1)C(C)C` [SNDX-5613, revumenib], the IC50 on hERG potassium channel (HEK293-hERG cells, manual patch-clamp, 0.3-30 µmol/L, room temperature, read-out: IC50 (hERG tail current)) was 7.59 µM; in the experiment on HL-60 cells, greater than 10 µM.
